Key:
OCI-Ly1_R110 cells = format: cell-based; conditions: human, 24 h
Description: (§1) The graph depicts a titration of ibrutinib to determine toxicity towards OCI-Ly1 cell models upon administration of serial dilutions of ibrutinib (11 steps, ranges 0.01 to 20 μM) to OCI-Ly1 wt or OCI-Ly1_R110 cells for 24 hours. Cell growth in percent was plotted as total numbers of ibrutinib-treated cells relative to the total number of untreated cells. […] This dose was thus chosen for further testing of CAR T efficacy.
(§2) Coadministration of BTK-inhibitors like ibrutinib-a BTK/ITK inhibitor known to restore T cell functionality—to CAR T cell can have additive anti-tumor effects. To test this in the R110 CAR T setting, ibrutinib toxicity for OCI-Ly1 target cells was assessed first. For this, 2×10^4 OCI-Ly1 wt and OCI-Ly1_R110 cells were seeded in 200 μl culture media supplemented with serial dilutions of ibrutinib (PCI-32765, Selleck Chemicals, Cat. S2680) ranging from 0.01 to 20 μM. Cells grown under the same conditions without ibrutinib served as control. After 24h incubation, viable (trypan blue exclusion) cells were counted using the Vi-CELL XR system (Beckman Coulter). Cell growth in percent was then plotted as total numbers of ibrutinib-treated cells relative to the total number of untreated cells (FIG. 10). […] This dose was thus chosen for further testing of CAR T efficacy.

OCI-Ly1 wt cells = format: cell-based; conditions: human, 24 h
Description: as §1, §2

C=CC(=O)N1CCC[C@@H](n2nc(-c3ccc(Oc4ccccc4)cc3)c3c(N)ncnc32)C1 [ibrutinib]
highest dose that does not result in a viability drop of target cells (OCI-Ly1_R110 cells): 0.08 UM
highest dose that does not result in a viability drop of target cells (OCI-Ly1 wt cells): 0.08 UM
